Our source for the TGI values is PubChem BioAssay (NCI).

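Where inhibition never reached the appropriate level, the endpoint shown equals the highest concentration tested. Otherwise, values were interpolated linearly from a five-concentration, 48-hour dose response in 96-well plates. The concentration for full growth arrest is given as TGI.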 A value given as a limit tells only on which side of the number the result lay.

Some test systems named below: UACC-62 melanoma; HCC-2998 colon; SNB-75 CNS; SR leukemia; CAKI-1 renal; MOLT-4 leukemia; SK-MEL-2 melanoma; MDA-MB-435; OVCAR-3 ovarian; MCF7 breast; PC-3 prostate; MDA-MB-231 breast; OVCAR-4 ovarian; OVCAR-5 ovarian; SW-620 colon; HCT-15 colon; RXF 393 renal; SN12C renal.
Common to all, as to experiment: NCI anticancer screen, dose series, 48 h

Turning to `CCCCCCCCCCCCCCC(O)C[N+](C)(CCO)CCO` (stereo not drawn), the TGI in the assay with UACC-62 melanoma was 11.1 µM; in the assay with HCC-2998 colon, 3.51 µM; in the assay on SNB-75 CNS, 2.85 µM; with SR leukemia, 10.1 µM; in the assay with CAKI-1 renal it was 9.59 µM; with MOLT-4 leukemia, 9.13 µM. The TGI is 27.5 µM in the assay on SK-MEL-2 melanoma; 21.3 µM in the assay with MDA-MB-435; 12.1 µM in the assay with OVCAR-3 ovarian; 36.5 µM in the assay on MCF7 breast; 4.31 µM with PC-3 prostate; 3.76 µM in the assay with MDA-MB-231 breast. For the same compound, the TGI in the assay on OVCAR-4 ovarian is 17 µM; in the assay with OVCAR-5 ovarian, 7.92 µM; in the assay on SW-620 colon, 23.7 µM; in the assay on HCT-15 colon it was 22 µM; with RXF 393 renal, 4.36 µM; with SN12C renal it was 21.5 µM.
Consider `CCOC(=O)Nc1ccc2c(c1)c(CCCCCCc1nc3ccccc3c3ccc(NC(=O)OCC)cc13)nc1ccccc12`, for which the TGI was over 100 µM with UACC-62 melanoma; over 100 µM with HCC-2998 colon; 45.3 µM in the assay with SNB-75 CNS; over 100 µM in the assay with SR leukemia; over 100 µM with CAKI-1 renal; over 100 µM in the assay with MOLT-4 leukemia. The TGI with SK-MEL-2 melanoma is 71.2 µM; in the assay on MDA-MB-435 it was over 100 µM; in the assay with OVCAR-3 ovarian, 58.7 µM; in the assay with MCF7 breast, over 100 µM; in the assay on PC-3 prostate, over 100 µM; with MDA-MB-231 breast, 67.8 µM. Further, the TGI in the assay on OVCAR-4 ovarian is 74.2 µM; in the assay on OVCAR-5 ovarian, over 100 µM; with SW-620 colon, over 100 µM; in the assay with HCT-15 colon, over 100 µM; in the assay with RXF 393 renal, over 100 µM; in the assay with SN12C renal it was over 100 µM.
With `COc1ccc2c3c([nH]c2c1)CCN(CCCC(=O)c1ccc(F)cc1)C3`, the TGI with UACC-62 melanoma worked out at 27.4 µM; with HCC-2998 colon, 17.7 µM; with SNB-75 CNS it was 24.8 µM; with SR leukemia it was 36.6 µM; in the assay with CAKI-1 renal it was 31.8 µM; with MOLT-4 leukemia, 36.2 µM. The TGI was 32 µM in the assay with SK-MEL-2 melanoma; 31 µM in the assay on MDA-MB-435; 32.9 µM in the assay with OVCAR-3 ovarian; 31.6 µM in the assay on MCF7 breast; 25.6 µM with PC-3 prostate; 31.2 µM in the assay with MDA-MB-231 breast. Besides, the TGI in the assay with OVCAR-4 ovarian was found to be 32.2 µM; with OVCAR-5 ovarian it was 27.1 µM; in the assay on SW-620 colon, 32.8 µM; with HCT-15 colon it was 36.7 µM; in the assay with RXF 393 renal it was 28.5 µM; in the assay on SN12C renal it was 29.7 µM.
For the compound `Cc1csc2c1-n1cccc1C2=O`, the TGI in the assay with UACC-62 melanoma, in the assay on HCC-2998 colon, with SNB-75 CNS, with SR leukemia, in the assay on CAKI-1 renal and in the assay with MOLT-4 leukemia was over 100 µM throughout. In addition, the TGI in the assay with SK-MEL-2 melanoma, with MDA-MB-435, in the assay on OVCAR-3 ovarian, with MCF7 breast, with PC-3 prostate and with MDA-MB-231 breast was over 100 µM each time. The TGI in the assay with OVCAR-4 ovarian, with OVCAR-5 ovarian, with SW-620 colon, in the assay on HCT-15 colon, in the assay on RXF 393 renal and in the assay on SN12C renal was over 100 µM throughout.
With `Nc1nc(Cl)cc(NC2(CO)CCC2)n1`, the TGI with UACC-62 melanoma, in the assay with HCC-2998 colon, in the assay on SNB-75 CNS, in the assay on SR leukemia, in the assay on CAKI-1 renal and with MOLT-4 leukemia was over 100 µM throughout. For the same compound, the TGI in the assay with SK-MEL-2 melanoma, with MDA-MB-435, in the assay with OVCAR-3 ovarian, in the assay with MCF7 breast, in the assay with PC-3 prostate and with MDA-MB-231 breast was over 100 µM in each case. Moreover, the TGI in the assay on OVCAR-4 ovarian, with OVCAR-5 ovarian, in the assay on SW-620 colon, with HCT-15 colon, in the assay on RXF 393 renal and in the assay with SN12C renal was over 100 µM in each case.
Regarding `O=C(/C=C/c1cccc(Oc2ccccc2)c1)NCc1ccc(C(=O)NCCc2ccccc2)cc1`, the TGI in the assay with UACC-62 melanoma was over 100 µM; in the assay with HCC-2998 colon, over 100 µM; in the assay with SNB-75 CNS, 92.6 µM; in the assay on SR leukemia, over 100 µM; in the assay with CAKI-1 renal, over 100 µM; in the assay with MOLT-4 leukemia, over 100 µM. Moreover, the TGI with SK-MEL-2 melanoma, in the assay on MDA-MB-435, in the assay on OVCAR-3 ovarian, with MCF7 breast, in the assay on PC-3 prostate and in the assay with MDA-MB-231 breast was over 100 µM each time. The TGI in the assay on OVCAR-4 ovarian is over 100 µM; with OVCAR-5 ovarian it was over 100 µM; in the assay with SW-620 colon, over 100 µM; in the assay on HCT-15 colon it was over 100 µM; in the assay on RXF 393 renal, 61.1 µM; in the assay with SN12C renal, over 100 µM.
With `CC(C)=CCc1[nH]c2ccccc2c1C1=C(O)C(=O)C(c2c(CC=C(C)C)[nH]c3ccccc23)=C(O)C1=O`, the TGI came out at 2.94 µM in the assay with UACC-62 melanoma; 3.29 µM with HCC-2998 colon; 4.14 µM with SNB-75 CNS; 4.44 µM with SR leukemia; 6.26 µM in the assay on CAKI-1 renal; 15.4 µM with MOLT-4 leukemia. Moreover, the TGI amounted to 3.95 µM in the assay on SK-MEL-2 melanoma; 2.39 µM with MDA-MB-435; 3.92 µM in the assay with OVCAR-3 ovarian; 9.4 µM in the assay with MCF7 breast; 4.72 µM with PC-3 prostate; 3.38 µM in the assay on MDA-MB-231 breast. Further, the TGI worked out at 93.1 µM in the assay on OVCAR-4 ovarian; 8.44 µM in the assay with OVCAR-5 ovarian; 14.9 µM in the assay with SW-620 colon; 3.48 µM in the assay on HCT-15 colon; 8.17 µM with RXF 393 renal; 4.79 µM in the assay with SN12C renal.
As for `O=C(CCC=C(S(=O)(=O)c1ccccc1)S(=O)(=O)c1ccccc1)c1ccccc1`, the TGI in the assay on UACC-62 melanoma was 19.7 µM; in the assay with HCC-2998 colon, 21.7 µM; with SNB-75 CNS it was 9.57 µM; in the assay with SR leukemia, 82.6 µM; in the assay with CAKI-1 renal, 31.1 µM; in the assay on MOLT-4 leukemia it was over 100 µM. For the same compound, the TGI with SK-MEL-2 melanoma turned out to be 9.7 µM; with MDA-MB-435 it was 24.3 µM; with OVCAR-3 ovarian, 17.4 µM; in the assay on MCF7 breast, 17.1 µM; in the assay on PC-3 prostate, 14.2 µM; with MDA-MB-231 breast, 22.9 µM. For the same compound, the TGI in the assay with OVCAR-4 ovarian came to 63.6 µM; in the assay with OVCAR-5 ovarian it was 24 µM; with SW-620 colon, 15 µM; with HCT-15 colon it was 20.8 µM; in the assay with RXF 393 renal, 20 µM; in the assay with SN12C renal it was 13.1 µM.
Regarding `CC(=O)Oc1c(-c2ccccc2)sc2ccccc12`, the TGI with UACC-62 melanoma was 63.2 µM; in the assay on HCC-2998 colon it was 32 µM; with SNB-75 CNS it was 34.8 µM; in the assay with SR leukemia it was 29.4 µM; in the assay with CAKI-1 renal it was 22.8 µM; in the assay on MOLT-4 leukemia, 40.7 µM. Moreover, the TGI is 31.4 µM with SK-MEL-2 melanoma; 59 µM with MDA-MB-435; 56.4 µM with MCF7 breast; 97.5 µM in the assay with PC-3 prostate; 33.4 µM in the assay with MDA-MB-231 breast; 73.4 µM in the assay on OVCAR-4 ovarian. The TGI in the assay on OVCAR-5 ovarian was 61.5 µM; in the assay on SW-620 colon, over 100 µM; in the assay on HCT-15 colon it was 37.1 µM; in the assay with RXF 393 renal it was 28.1 µM.
In the case of `COC(=O)c1ccc(C)cc1CC1Cc2ccc(C)cc2C1=O` (stereo not drawn), the TGI in the assay on UACC-62 melanoma is 51.4 µM; in the assay on HCC-2998 colon, 32.3 µM; with SNB-75 CNS, 43.8 µM; in the assay with SR leukemia, 8.68 µM; in the assay on CAKI-1 renal, over 100 µM; in the assay with MOLT-4 leukemia, 26.4 µM. For the same compound, the TGI in the assay with SK-MEL-2 melanoma worked out at 30.6 µM; in the assay on MDA-MB-435, 4.03 µM; in the assay with OVCAR-3 ovarian it was 25.3 µM; in the assay on MCF7 breast, 19.9 µM; in the assay on PC-3 prostate, 71.8 µM; in the assay with MDA-MB-231 breast, 77.4 µM. For the same compound, the TGI with OVCAR-4 ovarian was 89.5 µM; in the assay with OVCAR-5 ovarian, 92.4 µM; in the assay on SW-620 colon, over 100 µM; with HCT-15 colon, 13.1 µM; in the assay with RXF 393 renal, 28.8 µM; in the assay with SN12C renal, 32.7 µM.
On to `O=c1[nH]cc(Cl)c(=O)[nH]1`, for which the TGI with UACC-62 melanoma, in the assay on HCC-2998 colon, in the assay with SNB-75 CNS, with SR leukemia, in the assay with CAKI-1 renal and in the assay on MOLT-4 leukemia was over 100 µM throughout. For the same compound, the TGI in the assay with SK-MEL-2 melanoma, in the assay with MDA-MB-435, in the assay on OVCAR-3 ovarian, with MCF7 breast, in the assay with PC-3 prostate and in the assay with MDA-MB-231 breast was over 100 µM in each case. The TGI with OVCAR-4 ovarian, with OVCAR-5 ovarian, in the assay on SW-620 colon, in the assay with HCT-15 colon, with RXF 393 renal and in the assay with SN12C renal was over 100 µM in each case.
In the case of `OCCN(/N=C\c1ccc2ccccc2c1)C1=NCCN1`, the TGI was 48.6 µM in the assay with UACC-62 melanoma; 32.6 µM with HCC-2998 colon; over 100 µM with SNB-75 CNS; 55.9 µM in the assay with SR leukemia; 44.5 µM in the assay on MOLT-4 leukemia; 42.6 µM with SK-MEL-2 melanoma. In addition, the TGI in the assay with MDA-MB-435 is 32.7 µM; in the assay with OVCAR-3 ovarian it was over 100 µM; in the assay with MCF7 breast it was over 100 µM; with PC-3 prostate it was over 100 µM; with MDA-MB-231 breast it was 33.4 µM; in the assay on OVCAR-4 ovarian, over 100 µM. The TGI with OVCAR-5 ovarian is 72.2 µM; with SW-620 colon it was 55.6 µM; in the assay on HCT-15 colon it was over 100 µM; with RXF 393 renal, 36.1 µM; in the assay on SN12C renal, over 100 µM.
